Drawing on patent US12043632B2, “6-heteroaryloxy benzimidazoles and azabenzimidazoles as JAK2 inhibitors” (Ajax Therapeutics, Inc., priority 2020, dated 2024), this text covers Kd for 47 compounds.

A value given as a limit tells only on which side of the number the result lay.

Usually Kd stands for a measure of binding affinity in units of concentration. Lower therefore signals higher affinity.

T1 sequence (O60674 849-1124 Y1007F/Y1008F limits assumed): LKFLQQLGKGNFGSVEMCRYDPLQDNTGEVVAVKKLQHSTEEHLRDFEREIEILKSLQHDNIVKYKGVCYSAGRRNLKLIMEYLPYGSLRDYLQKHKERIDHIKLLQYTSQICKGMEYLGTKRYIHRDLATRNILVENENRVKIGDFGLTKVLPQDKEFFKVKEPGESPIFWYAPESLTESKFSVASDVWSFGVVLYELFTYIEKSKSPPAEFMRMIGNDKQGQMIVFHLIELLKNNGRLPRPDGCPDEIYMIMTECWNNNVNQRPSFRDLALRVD

The assay concerns the target T1, JAK2 (JH1domain-catalytic, Y1007F,Y1008F) kinase (Homo sapiens, UniProt O60674, Y1007F/Y1008F).
T1 construct: JAK2 (JH1domain-catalytic, Y1007F,Y1008F) kinase was expressed as N-terminal fusion; made in house; host or cells: transiently transfected HEK293 cells
Nature of the assay: JAK2 JH1 Domain Binding Assay. Particulars: qPCR readout. A general note: Real-time PCR tracks product formation cycle by cycle.
Turning to `Cn1c(Nc2cc(C(C)(C)C)n([C@H]3COC[C@@H]3O)n2)nc2ncc(Oc3cnn4ccnc4c3)c(Cl)c21` (single isomer, unassigned) [Example I-23], the Kd lay in the range of 10 to 50 nM.

As to `Cn1c(Nc2cc(C(C)(C)C)n([C@@H]3COC[C@H]3O)n2)nc2ncc(Oc3cnn4ccnc4c3)c(Cl)c21` (single isomer, unassigned) [Example I-24], the Kd was 50 to 1000 nM.

For the compound `CC(O)Cn1nc(Nc2nc3ncc(Oc4cnn5ccncc45)c(Cl)c3n2C)cc1C(C)(C)C` (single isomer, unassigned) [Example I-37], the Kd was under 10 nM.

The compound `C[C@@H](O)Cn1nc(Nc2nc3ncc(Oc4cnn5ccncc45)c(Cl)c3n2C)cc1C(C)(C)C` (single isomer, unassigned) [Example I-38] came in with a Kd of under 10 nM.

`Cn1c(Nc2cc(C(C)(C)C)n([C@@H]3CCOC34CC4)n2)nc2ncc(Oc3cnn4ccncc34)c(Cl)c21` (single isomer, unassigned) [Example I-41-a] yielded a Kd of under 10 nM.

`Cn1c(Nc2cc(C(C)(C)C)n([C@@H]3CCOC34CC4)n2)nc2ncc(Oc3cnn4ccncc34)c(Cl)c21` (single isomer, unassigned) [Example I-41-b] showed a Kd of under 10 nM.

The compound `Cn1c(Nc2cc(C(C)(C)C)n(C3COCC3O)n2)nc2ncc(Oc3cnn4ccncc34)c(Cl)c21` (single isomer, unassigned) [Example I-47] had a Kd of under 10 nM.

`Cn1c(Nc2cc(C(C)(C)C)n(C3COCC3O)n2)nc2ncc(Oc3cnn4ccncc34)c(Cl)c21` (single isomer, unassigned) [Example I-48] had a Kd of under 10 nM.

Consider `Cn1c(Nc2nc([C@H]3CCOC3)c(C(C)(C)C)s2)nc2ncc(Oc3cnn4ccnc4c3)c(Cl)c21` (single isomer, unassigned) [Example I-56-a], for which the Kd fell in the range of 10 to 50 nM.

The compound `Cn1c(Nc2nc([C@@H]3CCOC3)c(C(C)(C)C)s2)nc2ncc(Oc3cnn4ccnc4c3)c(Cl)c21` (single isomer, unassigned) [Example I-56-b] had a Kd of 10 to 50 nM.

With `Cn1c(Nc2cc(C(C)(C)C)n([C@H]3CCC[C@H]3O)n2)nc2ncc(Oc3cnn4ccncc34)c(Cl)c21` (single isomer, unassigned) [Example I-60-a], the Kd was in the range of 10 to 50 nM.

On to `Cn1c(Nc2cc(C(C)(C)C)n([C@@H]3CCC[C@@H]3O)n2)nc2ncc(Oc3cnn4ccncc34)c(Cl)c21` (single isomer, unassigned) [Example I-60-b], for which the Kd was under 10 nM.

The compound `COc1c(Oc2cnn3ccncc23)cnc2nc(Nc3cc(C(C)(C)C)n([C@H]4CCC[C@H]4O)n3)n(C)c12` (single isomer, unassigned) [Example I-69-a] registered a Kd of 50 to 1000 nM.

`COc1c(Oc2cnn3ccncc23)cnc2nc(Nc3cc(C(C)(C)C)n([C@@H]4CCC[C@@H]4O)n3)n(C)c12` (single isomer, unassigned) [Example I-69-b] had a Kd of 10 to 50 nM.

As to `Cn1c(Nc2cc(C(C)(C)C)n([C@H]3CCC[C@H]3O)n2)nc2ncc(Oc3cnn4ccncc34)c(C(F)F)c21` (single isomer, unassigned) [Example I-71-a], the Kd is 50 to 1000 nM.

`Cn1c(Nc2cc(C(C)(C)C)n([C@@H]3CCC[C@@H]3O)n2)nc2ncc(Oc3cnn4ccncc34)c(C(F)F)c21` (single isomer, unassigned) [Example I-71-b] yielded a Kd of 10 to 50 nM.

As for `COc1c(Oc2cnn3ccncc23)cnc2nc(Nc3cc(C4CC4)cn([C@@H]4CCCOC4)c3=O)n(C)c12` (single isomer, unassigned) [Example I-72-a], the Kd was under 10 nM.

Consider `COc1c(Oc2cnn3ccncc23)cnc2nc(Nc3cc(C4CC4)cn([C@H]4CCCOC4)c3=O)n(C)c12` (single isomer, unassigned) [Example I-72-b], for which the Kd was under 10 nM.

Compound `Cn1c(Nc2cc(C3CC3)cn([C@H]3CCCOC3)c2=O)nc2ncc(Oc3cnn4ccncc34)c(Cl)c21` (single isomer, unassigned) [Example I-73-a] returned a Kd of under 10 nM.

As to `Cn1c(Nc2cc(C3CC3)cn([C@@H]3CCCOC3)c2=O)nc2ncc(Oc3cnn4ccncc34)c(Cl)c21` (single isomer, unassigned) [Example I-73-b], the Kd was under 10 nM.

`Cn1c(Nc2cc(C(C)(C)C)n([C@H]3COC[C@@H]3O)n2)nc2ncc(Oc3cnc4cnc(C5CC5)n4c3)c(Cl)c21` (single isomer, unassigned) [Example I-76-a] registered a Kd of 10 to 50 nM.

Consider `Cn1c(Nc2cc(C(C)(C)C)n([C@@H]3COC[C@H]3O)n2)nc2ncc(Oc3cnc4cnc(C5CC5)n4c3)c(Cl)c21` (single isomer, unassigned) [Example I-76-b], for which the Kd fell in the range of 10 to 50 nM.

`C[C@H](CO)Cn1cc(C2CC2)cc(Nc2nc3ncc(Oc4cnn5ccncc45)c(Cl)c3n2C)c1=O` (single isomer, unassigned) [Example I-81-a] gave a Kd of under 10 nM.

Compound `C[C@@H](CO)Cn1cc(C2CC2)cc(Nc2nc3ncc(Oc4cnn5ccncc45)c(Cl)c3n2C)c1=O` (single isomer, unassigned) [Example I-81-b] returned a Kd of under 10 nM.

Take `Cn1c(Nc2cc(C(C)(C)C)n([C@H]3COC[C@@H]3O)n2)nc2ncc(Oc3cnc4cnc(C5CC5)n4c3)c(C(F)F)c21` (single isomer, unassigned) [Example I-93-a]: the Kd is 10 to 50 nM.

`Cn1c(Nc2cc(C(C)(C)C)n([C@@H]3COC[C@H]3O)n2)nc2ncc(Oc3cnc4cnc(C5CC5)n4c3)c(C(F)F)c21` (single isomer, unassigned) [Example I-93-b]: the Kd was in the range of 50 to 1000 nM.

As for `Cn1c(Nc2cc(C3CC3)cn([C@H]3CC[C@@H]3O)c2=O)nc2ncc(Oc3cnn4ccncc34)c(Cl)c21` (single isomer, unassigned) [Example I-95-a], the Kd was under 10 nM.

In the case of `Cn1c(Nc2cc(C3CC3)cn([C@@H]3CC[C@H]3O)c2=O)nc2ncc(Oc3cnn4ccncc34)c(Cl)c21` (single isomer, unassigned) [Example I-95-b], the Kd was under 10 nM.

In the case of `Cn1c(Nc2cc(C3CC3)cn([C@@H]3CC[C@@H]3O)c2=O)nc2ncc(Oc3cnn4ccncc34)c(Cl)c21` (single isomer, unassigned) [Example I-98-a], the Kd is under 10 nM.

As to `Cn1c(Nc2cc(C3CC3)cn([C@H]3CC[C@H]3O)c2=O)nc2ncc(Oc3cnn4ccncc34)c(Cl)c21` (single isomer, unassigned) [Example I-98-b], the Kd is under 10 nM.

As to `Cn1c(Nc2cc(C3CC3)cn([C@H]3CC[C@@H]3O)c2=O)nc2ncc(Oc3cnn4ccccc34)c(Cl)c21` (single isomer, unassigned) [Example I-99-a], the Kd is under 10 nM.

Take `Cn1c(Nc2cc(C3CC3)cn([C@@H]3CC[C@H]3O)c2=O)nc2ncc(Oc3cnn4ccccc34)c(Cl)c21` (single isomer, unassigned) [Example I-99-b]: the Kd was under 10 nM.

As to `COc1c(Oc2cnn3ccccc23)cnc2nc(Nc3cc(C4CC4)cn([C@H]4CCCOC4)c3=O)n(C)c12` (single isomer, unassigned) [Example I-101-a], the Kd is under 10 nM.

As to `COc1c(Oc2cnn3ccccc23)cnc2nc(Nc3cc(C4CC4)cn([C@@H]4CCCOC4)c3=O)n(C)c12` (single isomer, unassigned) [Example I-101-b], the Kd is under 10 nM.

In turn, `COc1c(Oc2cnn3ccncc23)cnc2nc(Nc3cc(C4CC4)cn([C@@H]4CC[C@@H]4O)c3=O)n(C)c12` (single isomer, unassigned) [Example I-104-a] had a Kd of under 10 nM.

`COc1c(Oc2cnn3ccncc23)cnc2nc(Nc3cc(C4CC4)cn([C@H]4CC[C@H]4O)c3=O)n(C)c12` (single isomer, unassigned) [Example I-104-b] returned a Kd of under 10 nM.

The compound `Cn1c(Nc2cc(C(F)(F)F)cn([C@H]3CC[C@@H]3O)c2=O)nc2ncc(Oc3cnn4ccncc34)c(Cl)c21` (single isomer, unassigned) [Example I-105-a] showed a Kd of under 10 nM.

Regarding `Cn1c(Nc2cc(C(F)(F)F)cn([C@@H]3CC[C@H]3O)c2=O)nc2ncc(Oc3cnn4ccncc34)c(Cl)c21` (single isomer, unassigned) [Example I-105-b], the Kd is under 10 nM.

Regarding `Cn1c(Nc2cc(C(F)(F)F)cn([C@@H]3CCCOC3)c2=O)nc2ncc(Oc3cnn4ccncc34)c(Cl)c21` (single isomer, unassigned) [Example I-107-a], the Kd was under 10 nM.

In turn, `Cn1c(Nc2cc(C(F)(F)F)cn([C@H]3CCCOC3)c2=O)nc2ncc(Oc3cnn4ccncc34)c(Cl)c21` (single isomer, unassigned) [Example I-107-b] registered a Kd of under 10 nM.

In turn, `COc1c(Oc2cnn3ccncc23)cnc2nc(Nc3cc(C4CC4)cn([C@H]4CC[C@@H]4O)c3=O)n(C)c12` (single isomer, unassigned) [Example I-110-a] had a Kd of under 10 nM.

`COc1c(Oc2cnn3ccncc23)cnc2nc(Nc3cc(C4CC4)cn([C@@H]4CC[C@H]4O)c3=O)n(C)c12` (single isomer, unassigned) [Example I-110-b] registered a Kd of 10 to 50 nM.

In the case of `COc1c(Oc2cnn3ccncc23)cnc2nc(Nc3cc(C(F)(F)F)cn([C@H]4CC[C@@H]4O)c3=O)n(C)c12` (single isomer, unassigned) [Example I-113-a], the Kd lay in the range of 10 to 50 nM.

Compound `COc1c(Oc2cnn3ccncc23)cnc2nc(Nc3cc(C(F)(F)F)cn([C@@H]4CC[C@H]4O)c3=O)n(C)c12` (single isomer, unassigned) [Example I-113-b] displayed a Kd of 10 to 50 nM.

With `Cn1c(Nc2cc(C3CC3)cn([C@@H]3CC[C@@H]3O)c2=O)nc2ncc(Oc3cnn4ccccc34)c(Cl)c21` (single isomer, unassigned) [Example I-114-a], the Kd was under 10 nM.

Compound `Cn1c(Nc2cc(C3CC3)cn([C@H]3CC[C@H]3O)c2=O)nc2ncc(Oc3cnn4ccccc34)c(Cl)c21` (single isomer, unassigned) [Example I-114-b] yielded a Kd of under 10 nM.

As to `Cn1c(Nc2cc(C(F)(F)F)cn([C@@H]3CC[C@@H]3O)c2=O)nc2ncc(Oc3cnn4ccncc34)c(Cl)c21` (single isomer, unassigned) [Example I-119-a], the Kd was under 10 nM.
